Starred links: 1 amine or outer side, 2 acyl side, 3 side chain; linkers in the order of their positions; H or OH if unused. Positions of bridges follow the written chain, without caps; N, C: chain ends. Non-standard residues stand in square brackets, D forms with d. Residues, ends and D or L forms follow the SMILES beside them. *: point of attachment. X6 = O=C(CCC(=O)[*:3])N[C@@H](CS[*:2])C(=O)[*:1]; Trp(7-Me) = Cc1cccc2c(C[C@H](N)C(=O)O)c[nH]c12; X1 = O=C(CCCCN[*:3])N[C@@H](CS[*:2])C(=O)[*:1]; Trp(1-Me) = Cn1cc(C[C@H](N)C(=O)O)c2ccccc21; αMeLys(Me2) = CN(C)CCCC[C@](C)(N)C(=O)O; 2Nal = N[C@@H](Cc1ccc2ccccc2c1)C(=O)O; NMe5Ava = CN(CCCCC(=O)[*:2])[*:1]; 3Pal = N[C@@H](Cc1cccnc1)C(=O)O; Lys(Me) = CNCCCC[C@H](N)C(=O)O; αMeL = CC(C)C[C@](C)(N)C(=O)O; Suc = O=C(CCC(=O)[*:2])[*:1]; Thp = NC1(C(=O)O)CCOCC1; Me2NCH2CH2 = CN(C)CC*; Aib = CC(C)(N)C(=O)O; Ahx = NCCCCCC(=O)O; Ava = NCCCCC(=O)O; Sar = CNCC(=O)O
Experiments:
Pepsin = system: T1, Pepsin; experiment: Protease stability in simulated gastric fluid (Pepsin-SGF, FaSSGF); type: in vitro ADME; details: simulated gastric fluid with pepsin (Pepsin-SGF), 60 min, 1 μM peptide, 37° C., read-out: FaSSGF 60 (min), remaining percent of peptide
T1 construct: purchased Merck Millipore
How it was run: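 Peptides at 1 μM final in pepsin-containing SGF at 37° C, sampled at 0, 60, 120 and 240 min, quenched with ethanol (0.1% HCOOH). Analysed by LCMS/MS; percent remaining from peak area relative to time 0 (set to 100%).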

Pancreatin = experiment: Protease stability in simulated intestinal fluid (Pancreatin-SIF, FaSSIF); type: in vitro ADME; details: 1 μM peptide, 37° C.; for remaining at 1 h, 1 µM: 60 min, read-out: FaSSIF 60 (min), remaining percent of peptide; for remaining at 2 h, 1 µM: 120 min, read-out: FaSSIF 120 (min), remaining percent of peptide; for remaining at 4 h, 1 µM: 240 min, read-out: FaSSIF 240 (min), remaining percent of peptide
How it was run: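 Peptide (1 μM final) was incubated at 37° C in simulated intestinal fluid containing pancreatin (1 mg per 10 mL SIF concentrate). Samples were quenched with ethanol/0.1% HCOOH at 0, 60, 120 and 240 min and analysed by LC-MS/MS. Percent remaining is the peak area relative to time 0 (100%).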

[1] = system: IL-23 induced STAT3 signaling in HEK-Blue™ IL-23 cells; experiment: IL-23 induced STAT3 signaling in HEK-Blue IL-23 cells (SEAP reporter); type: cell-based; details: human IL23 0.25 ng/ml, read-out: pSTAT3
How it was run: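 HEK-Blue IL-23 cells (10,000/well) pre-incubated 60 min at 37 °C with serially diluted peptides, then stimulated overnight with human IL-23 (0.25 ng/ml final). STAT3-driven SEAP in supernatant detected with QUANTI-Blue after 45 min at RT (OD 620-655 nm); dose-response curves fitted.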

[2] = molecular target: T2, human interleukin-23 receptor (recombinant human IL-23R-Fc chimera) (Homo sapiens, UniProt Q5VWK5); experiment: Human ELISA IL23/IL23R (assay for specific human IL23R antagonists); type: binding; details: Table 10; read-out: Human ELISA IL23/IL23R IC50
T2 construct: Fc (IgG Fc fusion)
How it was run: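 Plates coated overnight at 4 °C with human IL23 ([…]), blocked, then serially diluted peptides added with recombinant human IL-23R-Fc (0.1 μg/ml final) for 60 min at room temperature. Bound receptor detected with anti-human IgG1-HRP and fluorogenic peroxidase substrate.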

Row | SMILES | remaining at 1 h, 1 µM (Pepsin) [%] | remaining at 1 h, 1 µM (Pancreatin) [%] | remaining at 2 h, 1 µM (Pancreatin) [%] | remaining at 4 h, 1 µM (Pancreatin) [%] | IC50 [1] [pM] | IC50 [2] [pM]
1 | CC(=O)NCCCC[C@@H]1NC(=O)[C@H](Cc2c[nH]c3c(C)cccc23)NC(=O)[C@@H](NC(C)=O)CCCCNC(=O)[C@@H]2CSSC[C@H](NC1=O)C(=O)N[C@@H](Cc1ccc(OCCN(C)C)cc1)C(=O)N[C@@H](Cc1ccc3ccccc3c1)C(=O)N[C@@](C)(CC(C)C)C(=O)N[C@H](C(=O)N[C@@H](CC(N)=O)C(=O)N[C@@H](Cc1cccnc1)C(=O)N(C)CC(N)=O)CCCCNC(=O)CCC(=O)N2 [compound 106] (Ac-K[Trp(7-Me)]K(Ac)CY(Me2NCH2CH2)[2Nal][αMeL]KN[3Pal][Sar]-NH2; linker 1-4-8 via X6) | 90 | 76 | 76 | 74 | 130 | 650
2 | CC(=O)NCCCC[C@@H]1NC(=O)[C@H](Cc2c[nH]c3c(C)cccc23)NC(=O)[C@H]([C@@H](C)O)NC(=O)[C@H](CC(N)=O)NC(=O)[C@@H]2CSSC[C@H](NC1=O)C(=O)N[C@@H](Cc1ccc(OCCN(C)C)cc1)C(=O)N[C@@H](Cc1ccc3ccccc3c1)C(=O)N[C@@](C)(CCCCN(C)C)C(=O)N[C@H](C(=O)N[C@@H](CC(N)=O)C(=O)N[C@@H](Cc1cccnc1)C(=O)N(C)CC(N)=O)CCCCN(C)C(=O)CCC(=O)N2 [compound 156] (CNT[Trp(7-Me)]K(Ac)CY(Me2NCH2CH2)[2Nal][αMeLys(Me2)][Lys(Me)]N[3Pal][Sar]-NH2; disulfide 1-6; linker N-10 via Suc) | 100 | 99 | 99 | 97 | 80 | 610
3 | CC(=O)NCCCC[C@@H]1NC(=O)[C@H](Cc2c[nH]c3c(C)cccc23)NC(=O)[C@@H](NC(C)=O)CCCCNC(=O)[C@@H]2CSSC[C@H](NC1=O)C(=O)N[C@@H](Cc1ccc(OCCN(C)C)cc1)C(=O)N[C@@H](Cc1ccc3ccccc3c1)C(=O)NC(C)(C)C(=O)N[C@H](C(=O)N[C@@H](CC(N)=O)C(=O)N[C@@H](Cc1cccnc1)C(=O)N(C)CC(N)=O)CCCCNC(=O)CCC(=O)N2 [compound 104] (Ac-K[Trp(7-Me)]K(Ac)CY(Me2NCH2CH2)[2Nal][Aib]KN[3Pal][Sar]-NH2; linker 1-4-8 via X6) | 100 | 80 | 80 | 76 | 100 | 640
4 | COc1ccc(C[C@@H]2NC(=O)[C@@H]3CSSC[C@H](NC(=O)CCCCCNC(=O)C[C@@H](C(=O)N[C@@H](CC(N)=O)C(=O)N[C@@H](CC(N)=O)C(N)=O)NC(=O)C(C)(C)NC(=O)[C@H](Cc4ccc5ccccc5c4)NC2=O)C(=O)N[C@@H](CC(N)=O)C(=O)N[C@@H]([C@@H](C)O)C(=O)N[C@@H](Cc2c[nH]c4ccccc24)C(=O)N[C@@H](CCC(N)=O)C(=O)N3)cc1 [compound 3] ([Ahx]CNTWQCY(Me)[2Nal][Aib]DNN-NH2; disulfide 2-7; lactam N-11) | 1 | 76 | 64 | 38 | 17200 | 700
5 | CC(C)C[C@]1(C)NC(=O)[C@H](Cc2ccc3ccccc3c2)NC(=O)[C@H](Cc2ccc(OCCN(C)C)cc2)NC(=O)[C@@H]2CSSC[C@H](NC(=O)CCCCN(C)C(=O)CC[C@@H](C(=O)N[C@@H](CC(N)=O)C(=O)N[C@@H](CC(N)=O)C(N)=O)NC1=O)C(=O)N[C@@H](CC(N)=O)C(=O)N[C@@H]([C@@H](C)O)C(=O)N[C@@H](Cc1c[nH]c3ccccc13)C(=O)N[C@@H](CCC(N)=O)C(=O)N2 [compound 41] ([NMe5Ava]CNTWQCY(Me2NCH2CH2)[2Nal][αMeL]ENN-NH2; disulfide 2-7; lactam N-11) | 90 | 83 | 71 | 57 | 1600 | 350
6 | CC(=O)NCCCC[C@@H]1NC(=O)[C@H](Cc2c[nH]c3c(C)cccc23)NC(=O)[C@H]([C@@H](C)O)NC(=O)[C@H](CC(N)=O)NC(=O)[C@@H]2CSSC[C@H](NC1=O)C(=O)N[C@@H](Cc1ccc(OCCN(C)C)cc1)C(=O)N[C@@H](Cc1ccc3ccccc3c1)C(=O)NC1(CCOCC1)C(=O)N[C@H](C(=O)N[C@@H](CC(N)=O)C(=O)N[C@@H](Cc1cccnc1)C(=O)N(C)CC(N)=O)CCCCNC(=O)CCC(=O)N2 [compound 102] (CNT[Trp(7-Me)]K(Ac)CY(Me2NCH2CH2)[2Nal][Thp]KN[3Pal][Sar]-NH2; disulfide 1-6; linker N-10 via Suc) | 97 | 82 | 77 | 74 | 90 | 300
7 | Cc1cccc2c(C[C@@H]3NC(=O)[C@H]([C@@H](C)O)NC(=O)[C@H](CC(N)=O)NC(=O)[C@@H]4CSSC[C@H](NC(=O)[C@H](CC(C)C)NC3=O)C(=O)N[C@@H](Cc3ccc(OCCN(C)C)cc3)C(=O)N[C@@H](Cc3ccc5ccccc5c3)C(=O)N[C@@](C)(CCCCN(C)C)C(=O)N[C@H](C(=O)N[C@@H](C)C(=O)N[C@@H](Cc3cccnc3)C(=O)N(C)CC(N)=O)CCCCNC(=O)CCC(=O)N4)c[nH]c12 [compound 155] (CNT[Trp(7-Me)]LCY(Me2NCH2CH2)[2Nal][αMeLys(Me2)]KA[3Pal][Sar]-NH2; disulfide 1-6; linker N-10 via Suc) | 98 | 98 | 98 | 98 | 100 | 700
8 | CC(=O)NCCCC[C@@H]1NC(=O)[C@H](Cc2cn(C)c3ccccc23)NC(=O)[C@@H](NC(C)=O)CCCCNC(=O)[C@@H]2CSSC[C@H](NC1=O)C(=O)N[C@@H](Cc1ccc(OCCN(C)C)cc1)C(=O)N[C@@H](Cc1ccc3ccccc3c1)C(=O)NC1(CCOCC1)C(=O)N[C@H](C(=O)N[C@@H](CC(N)=O)C(=O)N[C@@H](Cc1cccnc1)C(=O)N(C)CC(N)=O)CCC(=O)NCCCCC(=O)N2 [compound 126] (Ac-K[Trp(1-Me)]K(Ac)CY(Me2NCH2CH2)[2Nal][Thp]EN[3Pal][Sar]-NH2; linker 1-4-8 via X1) | 80 | 90 | 87 | 83 | 110 | 560
9 | C[C@@H](O)[C@@H]1NC(=O)[C@H](CC(N)=O)NC(=O)[C@@H]2CSSC[C@H](NC(=O)[C@H](CCC(N)=O)NC(=O)[C@H](Cc3c[nH]c4ccccc34)NC1=O)C(=O)N[C@@H](Cc1ccc(OCCN(C)C)cc1)C(=O)N[C@@H](Cc1ccc3ccccc3c1)C(=O)NC(C)(C)C(=O)N[C@H](C(=O)N[C@@H](CC(N)=O)C(=O)N[C@@H](CC(N)=O)C(N)=O)CCCCN(C)C(=O)CCC(=O)N2 [compound 25] | 74 | 71 | 52 | 45 | 39200 | 590
10 | Cc1cccc2c(C[C@@H]3NC(=O)[C@H]([C@@H](C)O)NC(=O)[C@H](CC(N)=O)NC(=O)[C@@H]4CSSC[C@H](NC(=O)[C@H](CCC(N)=O)NC3=O)C(=O)N[C@@H](Cc3ccc(OCCN(C)C)cc3)C(=O)N[C@@H](Cc3ccc5ccccc5c3)C(=O)NC(C)(C)C(=O)N[C@H](C(=O)N[C@@H](CC(N)=O)C(=O)N[C@@H](Cc3c[nH]cn3)C(N)=O)CCC(=O)NCCCCC(=O)N4)c[nH]c12 [compound 52] ([Ava]CNT[Trp(7-Me)]QCY(Me2NCH2CH2)[2Nal][Aib]ENH-NH2; disulfide 2-7; lactam N-11) | 102 | 81 | 76 | 65 | 1250 | 500
11 | CC[C@H](C)[C@H](NC(=O)[C@H](CC(N)=O)NC(=O)[C@H](CC(N)=O)NC(=O)[C@@H]1CCC(=O)NCCCCC(=O)N[C@H]2CSSC[C@H](NC(=O)[C@H](CCCCNC(C)=O)NC(=O)[C@H](Cc3c[nH]c4ccccc34)NC(=O)[C@H]([C@@H](C)O)NC(=O)[C@H](CC(N)=O)NC2=O)C(=O)N[C@@H](Cc2ccc(OCCN(C)C)cc2)C(=O)N[C@@H](Cc2ccc3ccccc3c2)C(=O)NC(C)(C)C(=O)N1)C(N)=O [compound 38] ([Ava]CNTWK(Ac)CY(Me2NCH2CH2)[2Nal][Aib]ENNI-NH2; disulfide 2-7; lactam N-11) | 86 | 100 | 96 | 84 | 11900 | 360
